In paper PMC4579270, “Identification and Characterization of an Irreversible Inhibitor of CDK2” (Chemistry & Biology, 2015):
Read-outs that look alike come from different tables or passages of the source.

What was measured:
Assay in all cases: Dundee kinase screen re-test (standard format and 4 hour pre-incubation)
Assay type in all cases: biochemical
[1] = biological target: BTK (Homo sapiens, UniProt Q06187)
Description: (§1) Prior to determining its cellular activity, we carried out a screen to assess its selectivity against a panel of 131 protein kinases under conditions that would not distinguish between a reversible or irreversible mode of action. […] These 13 kinases and 29 additional kinases, selected for their known sensitivity to other inhibitors within the purine series, were then tested in a modified screening format in which the assay was repeated following a 4-hr pre-incubation (Table S3B). […] However, conformational flexibility around the active site may promote such an interaction with a residue from another part of the structure ([Martin et al., 2012]).
(§2) Table S3, Related to Figure 4. NCL-0006300 protein kinase selectivity. […]
(§3) Dundee protein kinase screen (Bain et al., 2007). […]
(§4) (B) Selected kinases were re-tested in the Dundee kinase screen against NU6300 at a single concentration of 0.5 µM both in the standard assay format and following a 4 hour pre-incubation in the presence of NU6300. Kinases which have very low activity after the 4 hour incubation so that results might not be wholly reliable are boxed in salmon. Kinases where the activity after a 4 hour pre-incubation is < 50% that in the standard assay format are highlighted in red.

[2] = biological target: T1, EPH-B3 (Homo sapiens, UniProt P54753); settings: EPH-B3, 0.5µM
T1 sequence (P54753 34-998): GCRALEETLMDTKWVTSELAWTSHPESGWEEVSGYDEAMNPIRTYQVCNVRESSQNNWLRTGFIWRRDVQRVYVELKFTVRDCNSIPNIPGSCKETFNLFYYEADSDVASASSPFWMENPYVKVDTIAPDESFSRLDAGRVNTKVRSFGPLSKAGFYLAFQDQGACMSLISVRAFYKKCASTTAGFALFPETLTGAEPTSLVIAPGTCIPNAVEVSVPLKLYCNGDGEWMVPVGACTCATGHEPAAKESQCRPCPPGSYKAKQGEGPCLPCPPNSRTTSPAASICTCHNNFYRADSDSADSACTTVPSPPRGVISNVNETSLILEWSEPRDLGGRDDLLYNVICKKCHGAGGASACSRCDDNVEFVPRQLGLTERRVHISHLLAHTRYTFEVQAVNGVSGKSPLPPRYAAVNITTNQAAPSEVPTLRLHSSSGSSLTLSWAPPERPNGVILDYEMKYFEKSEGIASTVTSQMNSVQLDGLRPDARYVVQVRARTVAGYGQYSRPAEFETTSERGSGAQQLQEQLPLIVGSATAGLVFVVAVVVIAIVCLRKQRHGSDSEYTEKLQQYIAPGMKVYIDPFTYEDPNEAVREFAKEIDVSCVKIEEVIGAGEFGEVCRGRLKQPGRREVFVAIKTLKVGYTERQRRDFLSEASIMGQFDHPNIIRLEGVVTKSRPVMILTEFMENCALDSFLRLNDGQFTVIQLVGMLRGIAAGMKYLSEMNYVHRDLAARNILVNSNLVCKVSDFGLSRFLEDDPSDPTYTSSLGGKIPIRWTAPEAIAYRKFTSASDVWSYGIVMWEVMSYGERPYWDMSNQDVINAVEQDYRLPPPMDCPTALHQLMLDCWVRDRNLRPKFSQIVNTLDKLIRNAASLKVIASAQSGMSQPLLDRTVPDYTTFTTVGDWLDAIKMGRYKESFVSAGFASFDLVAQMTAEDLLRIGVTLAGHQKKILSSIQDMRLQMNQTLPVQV
Description: as §1, §2, §3, §4

[3] = biological target: T2, MARK4 (Homo sapiens, UniProt Q96L34); settings: MARK4, 0.5µM
T2 sequence (Q96L34 1-752): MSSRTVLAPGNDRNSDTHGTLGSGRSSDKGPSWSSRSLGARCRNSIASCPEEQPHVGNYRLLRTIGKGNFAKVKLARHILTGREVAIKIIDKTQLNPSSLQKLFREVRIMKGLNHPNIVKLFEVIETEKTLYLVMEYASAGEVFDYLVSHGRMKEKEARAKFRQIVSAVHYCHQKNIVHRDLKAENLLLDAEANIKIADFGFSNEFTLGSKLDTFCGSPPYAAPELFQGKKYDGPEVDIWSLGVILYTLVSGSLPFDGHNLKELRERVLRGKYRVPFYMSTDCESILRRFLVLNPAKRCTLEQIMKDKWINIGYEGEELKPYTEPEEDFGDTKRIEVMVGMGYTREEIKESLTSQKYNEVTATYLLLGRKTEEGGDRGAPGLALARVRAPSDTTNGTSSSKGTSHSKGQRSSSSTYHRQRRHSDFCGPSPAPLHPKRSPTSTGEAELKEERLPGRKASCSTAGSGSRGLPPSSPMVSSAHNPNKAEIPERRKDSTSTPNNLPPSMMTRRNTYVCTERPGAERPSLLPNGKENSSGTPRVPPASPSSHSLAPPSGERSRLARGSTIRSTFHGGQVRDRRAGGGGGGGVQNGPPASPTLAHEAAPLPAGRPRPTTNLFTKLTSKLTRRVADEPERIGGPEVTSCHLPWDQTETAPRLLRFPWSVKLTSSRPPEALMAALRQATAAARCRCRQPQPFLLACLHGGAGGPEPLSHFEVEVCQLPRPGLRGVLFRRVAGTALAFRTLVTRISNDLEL
Description: as §1, §2, §3, §4

[4] = 4hr RT preincubation, read-out: %Remaining activity at 0.5µM NU6300 - 4hr RT preincubation
[5] = usual format, read-out: %Remaining activity at 0.5µM NU6300 - Usual assay format

BTK, sequence (Q06187 whole entry): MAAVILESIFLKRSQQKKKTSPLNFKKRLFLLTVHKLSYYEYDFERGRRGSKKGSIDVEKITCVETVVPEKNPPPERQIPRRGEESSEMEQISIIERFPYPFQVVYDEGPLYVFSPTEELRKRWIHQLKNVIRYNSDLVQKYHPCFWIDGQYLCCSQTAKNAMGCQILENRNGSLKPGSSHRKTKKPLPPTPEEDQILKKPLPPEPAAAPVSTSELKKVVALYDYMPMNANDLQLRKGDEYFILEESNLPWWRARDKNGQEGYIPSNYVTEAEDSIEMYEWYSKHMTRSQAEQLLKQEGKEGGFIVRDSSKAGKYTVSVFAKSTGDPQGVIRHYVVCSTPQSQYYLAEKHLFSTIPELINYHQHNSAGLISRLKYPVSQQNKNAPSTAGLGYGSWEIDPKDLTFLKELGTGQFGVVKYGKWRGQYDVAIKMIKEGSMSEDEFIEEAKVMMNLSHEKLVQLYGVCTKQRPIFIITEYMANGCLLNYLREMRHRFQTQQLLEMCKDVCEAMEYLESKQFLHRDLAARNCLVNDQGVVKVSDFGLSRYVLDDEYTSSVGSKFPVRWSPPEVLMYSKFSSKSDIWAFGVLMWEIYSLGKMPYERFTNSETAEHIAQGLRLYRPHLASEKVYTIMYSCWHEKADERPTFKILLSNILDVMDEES

C=CS(=O)(=O)c1ccc(Nc2nc(OCC3CCCCC3)c3nc[nH]c3n2)cc1 [NU6300, 6-(cyclohexylmethoxy)-N-(4-(vinylsulfonyl)phenyl)-9H-purin-2-amine]
remaining activity at 0.5 µM [1, 4]: 28%
remaining activity at 0.5 µM [1, 5]: 18%
remaining activity at 0.5 µM [2, 4]: 17%
remaining activity at 0.5 µM [2, 5]: 12%
remaining activity at 0.5 µM [3, 4]: 52%
remaining activity at 0.5 µM [3, 5]: 47%
